From US9173882B2, “Polycyclic heteroaryl substituted triazoles useful as Axl inhibitors” (Rigel Pharmaceuticals, Inc., priority 2008, dated 2015)

Molecular target: T1, Axl (Homo sapiens, UniProt P30530)
T1 construct: endogenous in cells; host or cells: HeLa cells
T1 sequence (P30530 26-894): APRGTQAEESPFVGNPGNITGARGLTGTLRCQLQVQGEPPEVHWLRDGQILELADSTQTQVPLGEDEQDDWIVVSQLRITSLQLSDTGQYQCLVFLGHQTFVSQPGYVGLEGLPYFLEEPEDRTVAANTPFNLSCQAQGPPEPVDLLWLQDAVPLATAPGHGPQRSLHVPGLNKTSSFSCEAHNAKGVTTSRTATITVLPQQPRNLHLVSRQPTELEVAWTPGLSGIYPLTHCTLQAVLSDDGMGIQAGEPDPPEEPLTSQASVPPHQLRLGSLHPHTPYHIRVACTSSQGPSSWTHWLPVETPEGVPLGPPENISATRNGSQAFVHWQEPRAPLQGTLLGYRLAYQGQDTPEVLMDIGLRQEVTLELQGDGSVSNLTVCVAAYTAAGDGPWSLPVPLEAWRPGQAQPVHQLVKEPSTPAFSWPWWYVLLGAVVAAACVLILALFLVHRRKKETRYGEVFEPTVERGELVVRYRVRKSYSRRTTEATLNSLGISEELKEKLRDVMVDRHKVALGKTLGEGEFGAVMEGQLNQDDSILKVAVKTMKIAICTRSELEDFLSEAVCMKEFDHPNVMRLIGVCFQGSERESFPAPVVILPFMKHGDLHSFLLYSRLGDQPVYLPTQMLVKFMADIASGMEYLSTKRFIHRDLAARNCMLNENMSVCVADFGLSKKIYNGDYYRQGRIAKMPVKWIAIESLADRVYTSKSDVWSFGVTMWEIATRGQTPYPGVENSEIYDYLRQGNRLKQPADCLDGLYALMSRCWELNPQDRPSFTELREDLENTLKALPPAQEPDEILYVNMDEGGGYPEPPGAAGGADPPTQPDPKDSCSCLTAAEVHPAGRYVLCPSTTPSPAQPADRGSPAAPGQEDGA
Assay: Phospho-Akt in-cell Western assay
Assay type: cell-based
Conditions: Hela cells, stimulated by Axl-antibody cross-linking, phospho-Akt chemiluminescence
Method: Phospho-Akt in-Cell Western Assay
The compounds of the invention were tested in the following assay for their ability to inhibit Axl activity.
• Cell culture plate: 96 well assay plate (Corning 3610), white, clear bottom, tissue-culture treated. • Cells: Hela cells. • Starvation medium: For Axl stimulation: 0.5% FCS (fetal calf serum) in DMEM, plus Axl/Fc (extracellular domain of AXL fused to imunoglobulin Fc region) (R&D, 154-AL) 500 ng/mL. • For EGF (epidermal growth factor) stimulation: 0.5% FCS in DMEM (Dulbecco's modified Eagles medium). • Poly-L-Lysine 0.01% solution (the working solution): 10 μg/ml, dilute In PBS (phosphate buffered saline). • Axl antibody cross-linking: • 1st: Mouse anti-Axl (R&D, MAB154). • 2nd: Biotin-SP-conjugated AffiniPure goat anti-mouse IgG (H+L) (Jackson ImmunoResearch #115-065-003). • Fixing buffer: 4% formaldehyde in PBS. • Wash buffer: 0.1% TritonX-100 in PBS. • Quenching buffer: 3% H2O2, 0.1% Azide in wash buffer, Azide and hydrogen peroxide (H2O2) are added fresh. • Blocking buffer: 5% BSA in TBST (tris buffered saline plus 0.1% Tween 20). • Primary antibody: Rabbit anti-human Phospho-Akt antibody (Cell Signaling 9271): 1×250 diluted in blocking buffer. • Secondary antibody: HRP (horse radish peroxidase)-conjugated Goat anti-Rabbit secondary, stock solution: Jackson ImmunoResearch (Goat anti-Rabbit HRP, #111-035-144) 1:1 diluted in glycerol, store at −20° C. The working solution: 1×2000 dilution of stock in blocking buffer. • Chemiluminescent working solution (Pierce, 37030): SuperSignal ELISA (enzyme linked immunosorbant assay) Pico Chemiluminescent substrate. • Crystal Violet solution: Stock: 2.5% Crystal violet in methanol, filtered and kept at ambient temperature. The working solution: dilute the stock 1:20 with PBS immediately before use. • 10% SDS: working solution: 5% SDS (sodium dodecylsulfate), diluted in PBS Methods: Day 1:
A 96 well TC (tissue culture treated) plate was coated with 10 μg/mL poly-L-Lysine at 37° C. for 30 min, washed twice with PBS, and air-dried for 5 minutes before cells were added. Hela cells were seeded at 10,000 cells/well and the cells were starved in 100 μL starvation medium containing Axl/Fc for 24 hrs.
The cells were pre-treated with test compounds by adding 100 μL of 2× test compound to the starvation medium on the cells. The cells were incubated at 37° C. for 1 hr before stimulation.
The cells were stimulated by Axl-antibody cross-linking as follows: A 5× 1st/2nd Axl antibody mixture was made (37.5 μg/mL 1st/100 μg/mL 2nd) in starvation medium and nutated at 4° C. with thorough mixing for 1-2 hours for clustering. The resulting mix was warmed to 37° C. 50 μL of 5× Axl 1st/2nd of antibody cluster was added to the cells and the cells were incubated at 37° C. for 5 min.
After 5 minutes stimulation, the plate was flicked to remove medium and the plate was tapped onto paper towels. Formaldehyde (4.0% in PBS, 100 μL) was added to fix the cells and the cells were incubated at ambient temperature for 20 min without shaking.
The cells were washed with a plate washer buffer to remove the formaldehyde solution. The plate was flicked to removed excess wash buffer and tapped onto paper towels. Quenching buffer (100 μL) was added to each well and the cells were incubated at ambient temperature for 20 minutes without shaking.
The cells were washed with a plate washer buffer to remove the quenching buffer. Blocking buffer (100 μL) was added and the cells were incubated at ambient temperature for at least an hour with gentle shaking.
The cells were washed with a plate washer buffer and diluted primary antibody (50 μL) was added to each well (blocking buffer was added to the negative control wells instead). The plates were incubated overnight at 4° C. with gentle shaking.
The wash buffer was removed, diluted secondary antibody (100 μL) was added, and the cells were incubated at ambient temperature for 1 hour with gentle shaking. […]

Structure (SMILES)	IC50 (Table 1, formula (Ia)) [µM]	IC50 (Table 2, formula (Ib)) [µM]
Nc1nc(Nc2ccc3c(c2)CCC(N2CCC(F)(F)CC2)CC3)nn1-c1cc2c(nn1)-c1ccccc1CCC2 (stereo not drawn) [Compound 3, 1-(6,7-dihydro-5H-benzo[6,7]cyclohepta[1,2-c]pyridazin-3-yl)-N^3-(7-(4,4-difluoropiperidin-1-yl)-6,7,8,9-tetrahydro-5H-benzo[7]annulene-2-yl)-1H-1,2,4-triazole-3,5-diamine]	1 to 10	–
Nc1nc(Nc2ccc3c(c2)CCC(N2CCC(C(=O)O)CC2)CC3)nn1-c1cc2c(nn1)-c1ccccc1CCC2 (stereo not drawn) [Compound 7, 1-(6,7-dihydro-5H-benzo[6,7]cyclohepta[1,2-c]pyridazin-3-yl)-N^3-(7-(4-(carboxy)piperidin-1-yl)-6,7,8,9-tetrahydro-5H-benzo[7]annulene-2-yl)-1H-1,2,4-triazole-3,5-diamine]	< 1	–
CN(CC(=O)O)C1CCc2ccc(Nc3nc(N)n(-c4cc5c(nn4)-c4ccccc4CCC5)n3)cc2CC1 (stereo not drawn) [Compound 8, 1-(6,7-dihydro-5H-benzo[6,7]cyclohepta[1,2-c]pyridazin-3-yl)-N^3-(7-((carboxymethyl)(methyl)amino)-6,7,8,9-tetrahydro-5H-benzo[7]annulene-2-yl)-1H-1,2,4-triazole-3,5-diamine]	1 to 10	–
CCOC(=O)CN1CCN(C2CCc3ccc(Nc4nc(N)n(-c5cc6c(nn5)-c5ccccc5CCC6)n4)cc3CC2)CC1 (stereo not drawn) [Compound 9, 1-(6,7-dihydro-5H-benzo[6,7]cyclohepta[1,2-c]pyridazin-3-yl)-N^3-(7-(4-(ethoxycarbonylmethyl)piperazin-1-yl)-6,7,8,9-tetrahydro-5H-benzo[7]annulene-2-yl)-1H-1,2,4-triazole-3,5-diamine]	< 1	–
Nc1nc(Nc2ccc3c(c2)CCC(N2CCN(CC(=O)O)CC2)CC3)nn1-c1cc2c(nn1)-c1ccccc1CCC2 (stereo not drawn) [Compound 10, 1-(6,7-dihydro-5H-benzo[6,7]cyclohepta[1,2-c]pyridazin-3-yl)-N^3-(7-(4-(carboxymethyl)piperazin-1-yl)-6,7,8,9-tetrahydro-5H-benzo[7]annulene-2-yl)-1H-1,2,4-triazole-3,5-diamine]	1 to 10	–
Nc1nc(Nc2cccc3c2CCC(N2CCCC2)CC3)nn1-c1cc2c(nn1)-c1ccccc1CCC2 (stereo not drawn) [Compound 11, 1-(6,7-dihydro-5H-benzo[6,7]cyclohepta[1,2-c]pyridazin-3-yl)-N^3-(7-(pyrrolidin-1-yl)-6,7,8,9-tetrahydro-5H-benzo[7]annulene-1-yl)-1H-1,2,4-triazole-3,5-diamine]	> 20	–
Nc1nc(Nc2cccc3c2CCC(N2CCCC2)CC3)n(-c2cc3c(nn2)-c2ccccc2CCC3)n1 (stereo not drawn) [Compound 12, 1-(6,7-dihydro-5H-benzo[6,7]cyclohepta[1,2-c]pyridazin-3-yl)-N^5-(7-(pyrrolidin-1-yl)-6,7,8,9-tetrahydro-5H-benzo[7]annulene-1-yl)-1H-1,2,4-triazole-3,5-diamine]	–	< 1
CC(C)(C)OC(=O)N[C@H]1CCc2ccc(Nc3nc(N)n(-c4cc5c(nn4)-c4ccccc4CCC5)n3)cc2CC1 [Compound 13, 1-(6,7-dihydro-5H-benzo[6,7]cyclohepta[1,2-c]pyridazin-3-yl)-N^3-((7S)-7-(t-butoxycarbonylamino)-6,7,8,9-tetrahydro-5H-benzo[7]annulene-2-yl)-1H-1,2,4-triazole-3,5-diamine]	> 20	–
CC(C)(C)OC(=O)N[C@H]1CCc2ccc(Nc3nc(N)nn3-c3cc4c(nn3)-c3ccccc3CCC4)cc2CC1 [Compound 14, 1-(6,7-dihydro-5H-benzo[6,7]cyclohepta[1,2-c]pyridazin-3-yl)-N^5-((7S)-7-(t-butoxycarbonylamino)-6,7,8,9-tetrahydro-5H-benzo[7]annulene-2-yl)-1H-1,2,4-triazole-3,5-diamine]	–	> 20
Nc1nc(Nc2ccc3c(c2)CC[C@@H](N)CC3)nn1-c1cc2c(nn1)-c1ccccc1CCC2 [Compound 15, 1-(6,7-dihydro-5H-benzo[6,7]cyclohepta[1,2-c]pyridazin-3-yl)-N^3-((7S)-7-amino-6,7,8,9-tetrahydro-5H-benzo[7]annulene-2-yl)-1H-1,2,4-triazole-3,5-diamine]	1 to 10	–

Further lines, with some results ahead:

IC50 (Table 1, formula (Ia)) [µM]	Structure (SMILES)	IC50 (Table 2, formula (Ib)) [µM]
< 1	CC(=O)NC1CCc2ccc(Nc3nc(N)n(-c4cc5c(nn4)-c4ccccc4CCC5)n3)cc2CC1 (stereo not drawn) [Compound 1, 1-(6,7-dihydro-5H-benzo[6,7]cyclohepta[1,2-c]pyridazin-3-yl)-N^3-(7-(acetamido)-6,7,8,9-tetrahydro-5H-benzo[7]annulene-2-yl)-1H-1,2,4-triazole-3,5-diamine]	–
< 1	COC(=O)[C@H]1CCCN1C1CCc2ccc(Nc3nc(N)n(-c4cc5c(nn4)-c4ccccc4CCC5)n3)cc2CC1 (stereo partly drawn) [Compound 2, 1-(6,7-dihydro-5H-benzo[6,7]cyclohepta[1,2-c]pyridazin-3-yl)-N^3-(7-((2R)-2-(methoxycarbonyl)pyrrolidin-1-yl)-6,7,8,9-tetrahydro-5H-benzo[7]annulene-2-yl)-1H-1,2,4-triazole-3,5-diamine]	–
< 1	COC(=O)CN(C)C1CCc2ccc(Nc3nc(N)n(-c4cc5c(nn4)-c4ccccc4CCC5)n3)cc2CC1 (stereo not drawn) [Compound 4, 1-(6,7-dihydro-5H-benzo[6,7]cyclohepta[1,2-c]pyridazin-3-yl)-N^3-(7-((methoxycarbonylmethyl)(methyl)amino)-6,7,8,9-tetrahydro-5H-benzo[7]annulene-2-yl)-1H-1,2,4-triazole-3,5-diamine]	–
< 1	Nc1nc(Nc2ccc3c(c2)CCC(N2CCC[C@@H]2C(=O)O)CC3)nn1-c1cc2c(nn1)-c1ccccc1CCC2 (stereo partly drawn) [Compound 5, 1-(6,7-dihydro-5H-benzo[6,7]cyclohepta[1,2-c]pyridazin-3-yl)-N^3-(7-((2R)-2-(carboxy)pyrrolidin-1-yl)-6,7,8,9-tetrahydro-5H-benzo[7]annulene-2-yl)-1H-1,2,4-triazole-3,5-diamine]	–
< 1	CCOC(=O)C1CCN(C2CCc3ccc(Nc4nc(N)n(-c5cc6c(nn5)-c5ccccc5CCC6)n4)cc3CC2)CC1 (stereo not drawn) [Compound 6, 1-(6,7-dihydro-5H-benzo[6,7]cyclohepta[1,2-c]pyridazin-3-yl)-N^3-(7-(4-(ethoxycarbonyl)piperidin-1-yl)-6,7,8,9-tetrahydro-5H-benzo[7]annulene-2-yl)-1H-1,2,4-triazole-3,5-diamine]	–
